This is an account of results in patent publication US20240174662A1, “SMALL MOLECULE INHIBITORS OF SALT INDUCIBLE KINASES” (Janssen Biotech, Inc., priority 2021, published 2024).

As a reminder, the IC50 is the midpoint of a concentration-inhibition curve.

For this assay, the target named is SIK2 (Homo sapiens (Human), UniProt Q9H0K1). In words: SIK2 Enzymatic Assay Version 2 (High ATP). Type of assay: biochemical. The conditions noted are these: 3 mM ATP and 200 μM HDAC5tide final, ADP-Glo Max luminescence. In a few lines: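 Luminescent ADP-Glo Max read-out: depletion reagent 2 h, then detection reagent 1 h. Before the reaction, compounds were incubated 30 min with enzyme added at 6 nM (twice final concentration), with all steps at room temperature.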
Sequence of SIK2 (Q9H0K1 whole entry, species assumed): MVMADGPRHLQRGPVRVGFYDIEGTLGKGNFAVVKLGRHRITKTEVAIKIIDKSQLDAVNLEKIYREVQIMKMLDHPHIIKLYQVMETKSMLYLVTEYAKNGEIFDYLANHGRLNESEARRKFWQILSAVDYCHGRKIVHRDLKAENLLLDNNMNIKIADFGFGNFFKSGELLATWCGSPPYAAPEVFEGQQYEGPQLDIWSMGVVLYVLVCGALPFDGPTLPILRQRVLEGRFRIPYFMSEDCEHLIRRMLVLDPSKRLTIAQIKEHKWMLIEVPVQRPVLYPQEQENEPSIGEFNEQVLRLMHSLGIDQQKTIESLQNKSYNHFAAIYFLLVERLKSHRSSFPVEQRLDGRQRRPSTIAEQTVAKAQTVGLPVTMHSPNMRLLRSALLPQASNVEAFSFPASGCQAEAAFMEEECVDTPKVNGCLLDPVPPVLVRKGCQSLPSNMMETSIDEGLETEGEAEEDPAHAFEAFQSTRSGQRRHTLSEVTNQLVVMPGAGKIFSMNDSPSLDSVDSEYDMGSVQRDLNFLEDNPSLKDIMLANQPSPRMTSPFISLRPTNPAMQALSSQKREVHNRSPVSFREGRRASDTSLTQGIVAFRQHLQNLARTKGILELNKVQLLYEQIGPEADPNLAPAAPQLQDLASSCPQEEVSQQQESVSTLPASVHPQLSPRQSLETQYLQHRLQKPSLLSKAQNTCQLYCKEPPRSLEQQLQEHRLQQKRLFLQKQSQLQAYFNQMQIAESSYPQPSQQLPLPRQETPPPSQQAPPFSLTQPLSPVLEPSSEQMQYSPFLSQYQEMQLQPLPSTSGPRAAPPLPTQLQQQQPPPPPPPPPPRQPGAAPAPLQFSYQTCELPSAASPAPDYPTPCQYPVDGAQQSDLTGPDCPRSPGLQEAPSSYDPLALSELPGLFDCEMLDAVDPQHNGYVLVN
In general terms: In ADP-Glo the light output rises with the ADP produced.

Some results are limits rather than exact numbers.

In the case of `Cc1onc(O[C@H]2C[C@H](N)C2)c1-c1ccn2nc(NC(=O)C3CC3)cc2c1` [Example 386, N-[5-[3-(3-aminocyclobutoxy)-5-methyl-isoxazol-4-yl]pyrazolo[1,5-a]pyridin-2-yl]cyclopropanecarboxamide], half-maximal inhibition (IC50) was put at 111 nM.

The molecule `Cn1ncc(OCC2NCC23CC3)c1-c1ccn2nc(NC(=O)C3CC3)cc2c1` (racemic) [Example 240, (RS)—N-[5-[4-(5-azaspiro[2.3]hexan-6-ylmethoxy)-2-methyl-pyrazol-3-yl]pyrazolo[1,5-a]pyridin-2-yl]cyclopropanecarboxamide] gave a 50% inhibitory concentration (IC50) of 28.7 nM.

For the molecule `CN1CC[C@H](Oc2cnn(C)c2-c2ccn3nc(Nc4cc(C(F)(F)F)ccn4)cc3c2)C1` [Example 340, 5-[2-methyl-4-[(3S)-1-methylpyrrolidin-3-yl]oxy-pyrazol-3-yl]-N-[4-(trifluoromethyl)-2-pyridyl]pyrazolo[1,5-a]pyridin-2-amine], the IC50 is 55.4 nM.

`CO[C@H]1CN(C)C[C@H]1Oc1cnn(C)c1-c1ccn2nc(NC(=O)C3CC3)cc2c1` (single isomer, unassigned) [Example 411, (3*R,4*S)—N-[5-[4-(4-methoxy-1-methyl-pyrrolidin-3-yl)oxy-2-methyl-pyrazol-3-yl]pyrazolo[1,5-a]pyridin-2-yl]cyclopropanecarboxamide]: the midpoint of inhibition, the IC50, lay at 86.9 nM.

`Cn1ncc(OC[C@H]2NCC2(C)C)c1-c1ccn2nc(NC(=O)C3CC3)cc2c1` [Example 4, N-[5-[4-[[(2S)-3,3-dimethylazetidin-2-yl]methoxy]-2-methyl-pyrazol-3-yl]pyrazolo[1,5-a]pyridin-2-yl]cyclopropanecarboxamide] returned a concentration for half-maximal inhibition (IC50) of 7.6 nM.

`Cc1nccc(Nc2cc3cc(-c4c(O[C@H]5CCN(C)C5)cnn4C)ccn3n2)n1` [Example 456, 5-[2-methyl-4-[(3S)-1-methylpyrrolidin-3-yl]oxy-pyrazol-3-yl]-N-(2-methylpyrimidin-4-yl)pyrazolo[1,5-a]pyridin-2-amine] had an IC50 of 102 nM.

For `Cc1cc(Nc2cc3cc(-c4c(OCC(N)C56CC(C5)C6)cnn4C)ccn3n2)nc(C)n1` (stereo not shown) [Example 310, 5-[4-[2-amino-2-(3-bicyclo[1.1.1]pentanyl)ethoxy]-2-methyl-pyrazol-3-yl]-N-(2,6-dimethylpyrimidin-4-yl)pyrazolo[1,5-a]pyridin-2-amine], the 50% inhibitory concentration (IC50) was 4 nM.

Consider `Cn1ncc(OC[C@@H](O)c2ccccc2)c1-c1ccn2nc(NC(=O)C3CC3)cc2c1` [Example 27, N-[5-[4-[(2S)-2-hydroxy-2-phenyl-ethoxy]-2-methyl-pyrazol-3-yl]pyrazolo[1,5-a]pyridin-2-yl]cyclopropanecarboxamide], for which the concentration for half-maximal inhibition (IC50) worked out at 11.8 nM.

Take `Cc1cc(Nc2cc3cc(-c4c(OC[C@H](O)C5(C)CC5)cnn4C)ccn3n2)nc(C)n1` (single isomer, unassigned) [Example 356, (1*R)-2-[5-[2-[(2,6-dimethylpyrimidin-4-yl)amino]pyrazolo[1,5-a]pyridin-5-yl]-1-methyl-pyrazol-4-yl]oxy-1-(1-methylcyclopropyl)ethanol]: the IC50 was 59.1 nM.

In the case of `CN1C[C@@H](c2ccccc2)C[C@@H]1COc1cnn(C)c1-c1ccn2nc(NC(=O)C3CC3)cc2c1` [Example 258, N-[5-[2-methyl-4-[[(2R,4R)-1-methyl-4-phenyl-pyrrolidin-2-yl]methoxy]pyrazol-3-yl]pyrazolo[1,5-a]pyridin-2-yl]cyclopropanecarboxamide], the IC50 amounted to 7.3 nM.

`CN1CC[C@H](Oc2cnn(C)c2-c2ccn3nc(Nc4cnccn4)cc3c2)C1` [Example 450, 5-[2-methyl-4-[(3S)-1-methylpyrrolidin-3-yl]oxy-pyrazol-3-yl]-N-pyrazin-2-yl-pyrazolo[1,5-a]pyridin-2-amine] showed an IC50 of 75.1 nM.

For the molecule `Cc1onc(OC[C@@H](N)c2ccccc2)c1-c1ccn2nc(NC(=O)C3CC3)cc2c1` [Example 31, N-[5-[3-[(2S)-2-amino-2-phenyl-ethoxy]-5-methyl-isoxazol-4-yl]pyrazolo[1,5-a]pyridin-2-yl]cyclopropanecarboxamide], the 50% inhibitory concentration (IC50) turned out to be 1 nM.

The molecule `Cc1cc(Nc2cc3cc(-c4c(OC[C@H]5CCN5C)cnn4C)ccn3n2)nc(C(C)(C)C)n1` [Example 151, N-(2-tert-butyl-6-methyl-pyrimidin-4-yl)-5-[2-methyl-4-[[(2R)-1-methylazetidin-2-yl]methoxy]pyrazol-3-yl]pyrazolo[1,5-a]pyridin-2-amine] showed a concentration for half-maximal inhibition (IC50) of less than 0.847 nM.

In turn, `Cc1cnc(Nc2cc3cc(-c4c(CO[C@@H]5CN(C)C[C@@H]5C)cnn4C)ccn3n2)cn1` (relative stereo) [Example 380, CIS—*S, *S-5-[4-[(1,4-dimethylpyrrolidin-3-yl)oxymethyl]-2-methyl-pyrazol-3-yl]-N-(5-methylpyrazin-2-yl)pyrazolo[1,5-a]pyridin-2-amine] displayed an IC50 of 3.1 nM.

In turn, `Cc1ccc(Nc2cc3cc(-c4c(O[C@H]5CCN(C)C5)cnn4C)ccn3n2)cn1` [Example 451, 5-[2-methyl-4-[(3S)-1-methylpyrrolidin-3-yl]oxy-pyrazol-3-yl]-N-(6-methyl-3-pyridyl)pyrazolo[1,5-a]pyridin-2-amine] gave an IC50 of 107 nM.

Molecule `Cc1onc(OC[C@]23CN[C@H](CO2)C3)c1-c1ccn2nc(NC(=O)C3CC3)cc2c1` [Example 81, N-[5-[5-methyl-3-[[(1S,4S)-5-oxa-2-azabicyclo[2.2.1]heptan-4-yl]methoxy]isoxazol-4-yl]pyrazolo[1,5-a]pyridin-2-yl]cyclopropanecarboxamide] gave an IC50 of 9.7 nM.

In turn, `Cc1onc(O[C@@H]2CCNC2)c1-c1ccn2nc(NC(=O)C3CC3)cc2c1` [Example 74, N-[5-[5-methyl-3-[(3R)-pyrrolidin-3-yl]oxy-isoxazol-4-yl]pyrazolo[1,5-a]pyridin-2-yl]cyclopropanecarboxamide] returned an IC50 of 144 nM.

In turn, `Cn1ncc(OC[C@H](N)c2ccccc2)c1-c1ccn2nc(NC(=O)C3CC3)cc2c1` [Example 237, N-[5-[4-[(2R)-2-amino-2-phenyl-ethoxy]-2-methyl-pyrazol-3-yl]pyrazolo[1,5-a]pyridin-2-yl]cyclopropanecarboxamide] yielded a half-maximal inhibitory concentration (IC50) of 10.7 nM.

Regarding `Cc1cc(Nc2cc3cc(-c4c(OC[C@H]5CCN5)cnn4C)ccn3n2)nc(C)n1` [Example 42, 5-[4-[[(2R)-azetidin-2-yl]methoxy]-2-methyl-pyrazol-3-yl]-N-(2,6-dimethylpyrimidin-4-yl)pyrazolo[1,5-a]pyridin-2-amine], half-maximal inhibition (IC50) was put at 14.6 nM.

`Cc1onc(O[C@@H]2CCNC3(CCC3)C2)c1-c1ccn2nc(NC(=O)C3CC3)cc2c1` (single isomer, unassigned) [Example 218, (*R)—N-[5-[3-(9-azaspiro[3.5]nonan-6-yloxy)-5-methyl-isoxazol-4-yl]pyrazolo[1,5-a]pyridin-2-yl]cyclopropanecarboxamide]: the half-inhibitory concentration (IC50) was 49.5 nM.

`Cc1cnc(Nc2cc3cc(-c4c(OC[C@H]5CCN5C)cnn4C)ccn3n2)cn1` [Example 49, 5-[2-methyl-4-[[(2R)-1-methylazetidin-2-yl]methoxy]pyrazol-3-yl]-N-(5-methylpyrazin-2-yl)pyrazolo[1,5-a]pyridin-2-amine] displayed a half-maximal inhibitory concentration (IC50) of 5.3 nM.

On to `Cn1ncc(OC[C@H]2CCN2c2ccccn2)c1-c1ccn2nc(NC(=O)C3CC3)cc2c1` [Example 436, N-[5-[2-methyl-4-[[(2R)-1-(2-pyridyl)azetidin-2-yl]methoxy]pyrazol-3-yl]pyrazolo[1,5-a]pyridin-2-yl]cyclopropanecarboxamide], for which the 50% inhibitory concentration (IC50) was determined as 79 nM.
